Test results taken from PMC11984691, “Identifying ENO1 as a protein target of chlorogenic acid to inhibit cellular senescence and prevent skin photoaging in mice” (Aging Cell, 2024).

Tests used:
Enolase 1 (ENO1) C399A = molecular target: T1, Enolase 1 (ENO1) C399A (Homo sapiens, UniProt P06733, C399A); test: MicroScale Thermophoresis with purified mutant ENO1; assay type: binding
T1 construct: recombinant human ENO1-C399A, pET28a, His-tag

Enolase 1 (ENO1) = molecular target: T2, Enolase 1 (ENO1) (Homo sapiens, UniProt P06733); test: MicroScale Thermophoresis with purified ENO1; also LC-MS/MS site mapping, CETSA, pull-down competition and enzyme activity inhibition; assay type: binding
T2 construct: recombinant wild-type human ENO1 (NP_001419.1), pET28a, His-tag
T2 sequence (P06733 2-434): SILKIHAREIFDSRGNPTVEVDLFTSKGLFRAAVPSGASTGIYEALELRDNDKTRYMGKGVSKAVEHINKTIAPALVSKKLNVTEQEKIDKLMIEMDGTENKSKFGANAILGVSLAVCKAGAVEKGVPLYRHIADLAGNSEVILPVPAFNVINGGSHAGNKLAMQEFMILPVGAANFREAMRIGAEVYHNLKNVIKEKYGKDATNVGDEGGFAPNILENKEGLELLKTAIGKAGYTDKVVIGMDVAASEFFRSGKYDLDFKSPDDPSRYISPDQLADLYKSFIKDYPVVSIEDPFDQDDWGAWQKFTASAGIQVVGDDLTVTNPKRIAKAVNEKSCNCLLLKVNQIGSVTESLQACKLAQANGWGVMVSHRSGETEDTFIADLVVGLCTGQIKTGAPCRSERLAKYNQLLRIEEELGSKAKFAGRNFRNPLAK

T1 sequence (P06733 2-434 C399A): as the sequence (P06733 2-434) above, with C398A counted along it

Kd (Enolase 1 (ENO1) C399A): 130 µM
Kd (Enolase 1 (ENO1)): 20 µM
Structure (SMILES): O=C(/C=C/c1ccc(O)c(O)c1)O[C@@H]1C[C@](O)(C(=O)O)C[C@@H](O)[C@H]1O [CGA, Chlorogenic acid]
